Assay results as given in US8026069B2, “Process for identification of compounds for modulating the activity of sodium/calcium exchange transporter” (Sanofi-Aventis Deutschland GmbH, priority 2004, dated 2011).

Target: T1, NCX1-containing HEK membrane fragments (human cardiac sodium calcium exchanger NCX-1) (Homo sapiens, UniProt P32418)
T1 construct: expressed in transfected cells; host or cells: HEK-293 (Flp-In T-Rex-293-NCX1, DSM ACC2670), doxycycline-induced; membrane fragments
Experiment: cell free electrophysiological sensor chip (SurfE2R) NCX assay, current on Ca2+ concentration jump
Assay type: biochemical
Details: 5 mM
Procedure: 10-30 μl, for example, of NCX-containing membrane fragments were applied and circulated on the sensor chip and preferably incubated for at least 12 hours at 4° C. In preferred cases of experiments the NCX protein is a human NCX1 protein. The capacitance of the protein-loaded sensor chip was preferably around 100 nF cm^−2 and the conductance G1s preferably around 10 nS cm^−2. The principal of the assay is to test the electrical activity of NCX protein in the absence of the inhibitor and afterwards in the presence of the inhibitor. For this reason the NCX-sensor chip is rinsed with a sequence of solutions, which activate NCX. In general, there is the possibility to test whether an inhibitor is reversible. In this case after the inhibitor application the solutions are changed back to inhibitor-free conditions. Before the experiment the solution reservoirs of the chip are filled with the following preferred solutions: washing buffer: 40 mM KCl, 100 mM NaCl, 4 mM MgCl2, 30 mM HEPES/NMG pH 7.4; non-activating solution: 140 mM KCl, 4 mM MgCl2, 30 mM HEPES/NMG pH 7.4; activating solution: 140 mM KCl, 4 mM MgCl2, 30 mM HEPES/NMG pH 7.4, 0.5 mM CaCl2. […]
For the determination of its activity, the NCX protein was treated consecutively with a washing, non-activating and activating solution and the electrical current was measured when changing from […] to activating treatment. […]

[Ni+2] [Ni^2+]
effect on NCX current in control experiments: diminished
